Key:
human orexin-1 receptor = human orexin-1 receptor (Homo sapiens (Human), UniProt O43613); test: In vitro assay: intracellular calcium measurements (FLIPR), antagonistic activity; assay type: cell-based; settings: CHO cells expressing human orexin-1 receptor, orexin-A agonist, geometric mean, read-out: IC50 Ox1
Outline: (§1)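 Orexin-A-evoked calcium rise (3 nM final, roughly EC70) was recorded with fluo-4 in recombinant CHO cells, human receptor subtype 1 or 2.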

human orexin-2 receptor = human orexin-2 receptor (Homo sapiens (Human), UniProt O43614); test: as above; assay type: cell-based; settings: CHO cells expressing human orexin-2 receptor, orexin-A agonist, geometric mean, read-out: IC50 Ox2
Sequence of human orexin-2 receptor (O43614 whole entry): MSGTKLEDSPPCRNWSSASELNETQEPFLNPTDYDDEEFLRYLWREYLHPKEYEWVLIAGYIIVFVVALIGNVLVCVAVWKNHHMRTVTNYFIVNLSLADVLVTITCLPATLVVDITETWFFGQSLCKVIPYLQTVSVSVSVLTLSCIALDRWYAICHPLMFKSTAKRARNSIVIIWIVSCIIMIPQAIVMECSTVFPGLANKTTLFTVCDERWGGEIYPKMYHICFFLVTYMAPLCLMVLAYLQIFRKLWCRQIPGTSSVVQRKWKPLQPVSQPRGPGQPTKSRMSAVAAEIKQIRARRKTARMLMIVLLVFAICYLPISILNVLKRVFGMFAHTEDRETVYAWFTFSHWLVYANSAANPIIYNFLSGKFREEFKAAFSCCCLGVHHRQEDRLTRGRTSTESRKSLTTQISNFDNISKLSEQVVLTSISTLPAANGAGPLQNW
Outline: as §1

Sequence of human orexin-1 receptor (O43613 whole entry): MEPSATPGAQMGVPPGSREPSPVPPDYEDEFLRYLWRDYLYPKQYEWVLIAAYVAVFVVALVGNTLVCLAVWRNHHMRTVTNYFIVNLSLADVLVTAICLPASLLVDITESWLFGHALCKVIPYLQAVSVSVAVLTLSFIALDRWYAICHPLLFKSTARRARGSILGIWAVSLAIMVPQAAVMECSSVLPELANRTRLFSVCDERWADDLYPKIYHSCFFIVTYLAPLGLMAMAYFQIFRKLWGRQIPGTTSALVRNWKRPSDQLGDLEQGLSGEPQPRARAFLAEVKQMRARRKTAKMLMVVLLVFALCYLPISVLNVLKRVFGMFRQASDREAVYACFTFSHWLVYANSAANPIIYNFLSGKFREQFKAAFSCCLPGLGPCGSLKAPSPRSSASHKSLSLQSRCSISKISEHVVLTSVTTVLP

| IC50 (human orexin-1 receptor) [nM] | IC50 (human orexin-2 receptor) [nM] | SMILES |
| --- | --- | --- |
| 13 | 18 | CO[C@H]1CN(C(=O)c2ccc(C)cc2-n2nccn2)C(C)(c2nc3c(C)c(Cl)ccc3[nH]2)C1 (some centres unmarked) [Ex. 3.49] |
| 146 | 304 | C[C@@]1(c2nc3cc(F)c(Br)cc3[nH]2)CCCN1C(=O)c1c(F)cccc1-n1nccn1 [Ex. 5.123] |
| 96 | 173 | COc1cccc(-c2ccc(C)cc2C(=O)N2CCC[C@@]2(C)c2nc3cc(C)c(C)cc3n2CC2CC2)c1 [Ex. 7.49] |
| 1 | 2 | C=C1CC(c2nc3cccc(SC)c3[nH]2)N(C(=O)c2nc(C3CC3)sc2-c2cccc(C)c2)C1 (racemic) [Ex. 6.87] |
| 15 | 135 | COc1cccc(-c2nc(C(=O)N3CCC[C@@]3(C)c3nc4ccc(Cl)c(C)c4[nH]3)c(-c3ccc(F)cc3)s2)c1 [Ex. 5.231] |
| 4 | 178 | Cc1cc2[nH]c([C@@H]3[C@@H](C)CCN3C(=O)c3cc(Cl)ccc3-c3ccccc3)nc2cc1Cl [Ex. 4.103] |
| 88 | 1120 | Cc1nc(C(=O)N2CCC[C@@]2(C)c2nc3cc(OC(F)(F)F)ccc3[nH]2)c(-c2ccccc2C)s1 [Ex. 5.243] |
| 2 | 670 | Cc1nc(C(=O)N2CC[C@H](C)[C@H]2c2nc3cc(Cl)c(C)cc3[nH]2)c(-c2cccc(Cl)c2)s1 [Ex. 4.15] |
| 18 | 15 | Cc1nc(C(=O)N2CCCC2c2nc3cc(C)c(C)cc3[nH]2)c(-c2cccc(Cl)c2)s1 (centres unmarked) [Ex. 1.95] |
| 6 | 198 | Cc1ccc(-c2ccccc2)c(C(=O)N2CC[C@H](C)[C@H]2c2nc3cc(Cl)c(C)cc3[nH]2)c1 [Ex. 4.116] |
| 34 | 32 | Cc1nc(C(=O)N2CCC[C@H]2c2nc3cccc(Cl)c3[nH]2)c(-c2cccc(Cl)c2)s1 [Ex. 1.14] |
| 33 | 69 | COc1ccc(-c2ccc(OC(F)(F)F)cc2)c(C(=O)N2CCC[C@@]2(C)c2nc3c(C)c(Cl)ccc3[nH]2)c1F [Ex. 5.306] |
| 42 | 891 | Cc1nc(C(=O)N2CC[C@H](C)[C@H]2c2nc3c(C(F)(F)F)cccc3[nH]2)c(-c2ccccc2Cl)s1 [Ex. 4.155] |
| 6 | 2350 | Cc1nc(C(=O)N2CC[C@H](C)[C@H]2c2nc3cc(C)c(C)cc3[nH]2)c(-c2ccc(F)cc2)s1 [Ex. 4.90] |
| 41 | 22 | C=C1C[C@@H](c2nc3cc(OC)ccc3[nH]2)N(C(=O)c2nc(C3CC3)sc2-c2cccc(OC)c2)C1 [Ex. 6.31] |
| 195 | 1380 | COc1ccc(-n2nccn2)c(C(=O)N2CCC[C@@]2(C)c2nc3c(F)c(F)ccc3[nH]2)c1F [Ex. 5.203] |
| 83 | 3 | C=C1C[C@@H](c2nc3cc(SC)ccc3[nH]2)N(C(=O)c2cc(C)ccc2-n2nccn2)C1 [Ex. 6.60] |
| 62 | 177 | COc1ccccc1-c1ccc(C)cc1C(=O)N1CCC[C@@]1(C)c1nc2cc(C)c(C)cc2[nH]1 [Ex. 5.92] |
| 34 | 82 | COc1ccc(-c2ccccc2C(=O)N2CCC[C@@]2(C)c2nc3cc(C)c(C)cc3[nH]2)cc1 [Ex. 5.102] |
| 65 | 355 | C[C@@]1(c2nc3cc(C(F)(F)F)ccc3[nH]2)CCCN1C(=O)c1cc(F)ccc1-n1nccn1 [Ex. 5.165] |

| IC50 (human orexin-1 receptor) [nM] | IC50 (human orexin-2 receptor) [nM] | SMILES |
| --- | --- | --- |
| 426 | 104 | COc1cc2nc([C@]3(C)CCCN3C(=O)c3nc(C)ccc3-n3cccn3)[nH]c2cc1OC [Ex. 5.83] |
| 48 | 7 | C=C1C[C@@H](c2nc3cc(C)c(C)cc3[nH]2)N(C(=O)c2cc(F)ccc2-n2nccn2)C1 [Ex. 6.192] |
| 10 | 20 | CO[C@H]1CN(C(=O)c2cc(C)ccc2-n2cccn2)C(C)(c2nc3c(C)c(Cl)ccc3[nH]2)C1 (some centres unmarked) [Ex. 3.53] |
| 9 | 0.5 | C=C1C[C@@H](c2nc3ccc(Cl)c(C)c3[nH]2)N(C(=O)c2cc(OC)ccc2-n2nccn2)C1 [Ex. 6.131] |
| 25 | 31 | COc1cccc(-c2ccc(OC)c(F)c2C(=O)N2CCC[C@@]2(C)c2nc3c(C)c(Cl)ccc3[nH]2)c1 [Ex. 5.296] |
| 33 | 1360 | Cc1cc2[nH]c([C@@H]3[C@@H](C)CCN3C(=O)c3cc(C(F)(F)F)ccc3-c3ccccc3)nc2cc1Cl [Ex. 4.114] |
| 10 | 49 | COc1cc(C(=O)N2CCC[C@@]2(C)c2nc3cc(C(F)(F)F)c(Cl)cc3[nH]2)c(-n2nccn2)cc1OC [Ex. 5.135] |
| 102 | 69 | CO[C@H]1C[C@@H](c2nc3ccc(Cl)c(C)c3[nH]2)N(C(=O)c2cc(C)ccc2-n2nccn2)C1 [Example 3.1, ((2S,4S)-2-(6-chloro-7-methyl-1H-benzo[d]imidazol-2-yl)-4-methoxypyrrolidin-1-yl)(5-methyl-2-(2H-1,2,3-triazol-2-yl)phenyl)methanone] |
| 99 | 5 | C=C1C[C@@H](c2nc3cccc(C)c3[nH]2)N(C(=O)c2nc(C)sc2-c2ccc(F)cc2)C1 [Ex. 6.106] |
| 1 | 0.5 | C=C1C[C@@H](c2nc3ccc(Cl)c(C)c3[nH]2)N(C(=O)c2nc(C)sc2-c2cccc(OC)c2)C1 [Ex. 6.121] |
| 41 | 4 | C=C1C[C@@H](c2nc3cc(C)c(C)cc3[nH]2)N(C(=O)c2cc(C)ccc2-n2nccn2)C1 [Ex. 6.61] |
| 86 | 248 | Cc1nc(C(=O)N2CCCC2c2nc3c(C(C)C)cccc3[nH]2)c(-c2cccc(Cl)c2)s1 (centres unmarked) [Ex. 1.116] |
| 8 | 14 | C=C1CC(c2nc3cccc(Cl)c3[nH]2)N(C(=O)c2cc(C)sc2-c2ccc(C)c(C)c2)C1 (centres unmarked) [Ex. 6.84] |
| 7 | 86 | Cc1ccc(-n2nccn2)c(C(=O)N2CCC[C@@]2(C)c2nc3cc(C(F)(F)F)c(F)cc3[nH]2)c1 [Ex. 5.22] |
| 660 | 76 | COc1ccc2nc([C@@H]3CCCN3C(=O)c3nc(C)sc3-c3cccc(Cl)c3Cl)[nH]c2c1 [Ex. 1.19] |
| 67 | 73 | C=C1C[C@@H](c2nc3cc(Cl)c(C(F)(F)F)cc3[nH]2)N(C(=O)c2cc(C(F)(F)F)ccc2-n2nccn2)C1 [Ex. 6.184] |
| 2 | 3 | Cc1nc(C(=O)N2CCC[C@@]2(C)c2nc3c(C)c(Cl)ccc3n2C)c(-c2ccccc2)s1 [Ex. 7.7] |
| 20 | 49 | COc1ccc(-c2cccc(C#N)c2)c(C(=O)N2CCC[C@@]2(C)c2nc3c(C)c(Cl)ccc3[nH]2)c1F [Ex. 5.307] |
| 45 | 5 | CO[C@@H]1C[C@@H](c2nc3ccc(Cl)c(C)c3[nH]2)N(C(=O)c2cc(Cl)ccc2-n2nccn2)C1 [Ex. 3.10] |
| 23 | 4870 | Cc1nc(C(=O)N2CC[C@H](C)[C@H]2c2nc3cc(F)c(F)cc3[nH]2)c(-c2cccc(Cl)c2)s1 [Ex. 4.12] |

| IC50 (human orexin-1 receptor) [nM] | IC50 (human orexin-2 receptor) [nM] | SMILES |
| --- | --- | --- |
| 213 | 23 | C=C1C[C@@H](c2nc3cc(OC)ccc3[nH]2)N(C(=O)c2nc(C)sc2-c2cccc(F)c2)C1 [Ex. 6.33] |
| 2 | 486 | Cc1nc(C(=O)N2CC[C@H](C)[C@H]2c2nc3cc(Cl)cc(C)c3[nH]2)c(-c2cccc(Cl)c2)s1 [Ex. 4.28] |
| 44 | 14 | CO[C@@H]1C[C@@H](c2nc3c(C)cccc3[nH]2)N(C(=O)c2nc(C)sc2-c2ccccc2)C1 [Ex. 3.4] |
| 4 | 2 | C=C1C[C@@H](c2nc3c(C)c(Cl)ccc3[nH]2)N(C(=O)c2nc(C)sc2-c2ccccc2)C1 [Ex. 6.41] |
| 15 | 18 | Cc1cccc(-c2ccc(C)cc2C(=O)N2CCC[C@@]2(C)c2nc3cc(C)c(C)cc3n2C)c1 [Ex. 7.25] |
| 3 | 6 | CO[C@H]1CN(C(=O)c2cc(Cl)ccc2-n2nccn2)C(C)(c2nc3c(C)c(Cl)ccc3[nH]2)C1 (some centres unmarked) [Ex. 3.44] |
| 9 | 5 | C=C1C[C@@H](c2nc3cc(Cl)c(C(F)(F)F)cc3[nH]2)N(C(=O)c2cc(C)ccc2-n2nccn2)C1 [Ex. 6.67] |
| 37 | 31 | CCc1ccc(-c2sc(C)nc2C(=O)N2CCC[C@H]2c2nc3cccc(SC)c3[nH]2)cc1 [Ex. 1.69] |
| 258 | 130 | COc1cc2nc([C@]3(C)CCCN3C(=O)c3ccccc3-n3cccn3)[nH]c2cc1OC [Ex. 5.81] |
| 12 | 105 | Cc1ccc(C(=O)N2CCC[C@@]2(C)c2nc3c(C)c(C)c(Br)cc3[nH]2)c(-n2nccn2)c1C [Ex. 5.267] |
| 217 | 24 | CSc1cccc2nc([C@@H]3CCCN3C(=O)c3c(F)cccc3-n3nccn3)[nH]c12 [Ex. 1.164] |
| 16 | 44 | Cc1c(Cl)ccc2nc([C@]3(C)CCCN3C(=O)c3c(F)cccc3-c3ccccc3)[nH]c12 [Ex. 5.225] |
| 8 | 636 | Cc1cc2[nH]c([C@@H]3[C@@H](C)CCN3C(=O)c3c(-n4nccn4)ccc(C)c3F)nc2cc1Cl [Ex. 4.75] |
| 67 | 61 | Cc1nc(C(=O)N2C[C@H](F)C[C@H]2c2nc3c(C)cccc3[nH]2)c(-c2ccccc2)s1 [Ex. 2.3] |
| 692 | 121 | COc1cccc(-c2sc(C)nc2C(=O)N2CCC[C@H]2c2nc3ccc(OC)cc3[nH]2)c1 [Ex. 1.20] |
| 19 | 16 | COc1cc2nc([C@]3(C)CCCN3C(=O)c3cc(C)c(C)cc3-n3nccn3)[nH]c2cc1OC [Ex. 5.72] |
| 2 | 4 | Cc1nc(C(=O)N2CCC[C@@]2(C)c2nc3c(C)c(Cl)ccc3[nH]2)c(-c2ccccc2)s1 [Ex. 5.3] |
| 55 | 756 | Cc1ccc(-n2nccn2)c(C(=O)N2CC[C@H](C)[C@H]2c2nc3c(C(C)C)cccc3[nH]2)c1 [Ex. 4.38] |
